Source: patent publication US20230092389A1, “UNIT DOSES, AEROSOLS, KITS, AND METHODS FOR TREATING HEART CONDITIONS BY PULMONARY ADMINISTRATION” (InCarda Therapeutics, Inc., priority 2017, published 2023)

Tested on: healthy volunteers
Assay: Phase 1 (FLE-001) pharmacodynamics, ECG intervals
Type: in vivo, human
Settings: for magnitude of QRS prolongation: 1 min post-inhalation; for magnitude of QRS prolongation / maximal QRS interval prolongation: post-hoc population; for prolongation in PR interval duration: Cohort 3, 60 mg eTLD
Description: The ECG recordings included: 1) Continuous real-time ECG telemetry for observation of patient safety starting at 12 hours pre-dose and continuing for 12 hours post-dose, 2) 12-lead ECGs for immediate review by medical staff to ascertain the safety of the procedures and drug administration were recorded at pre-specified (or any time as needed) before dosing (pre-dose) and after dosing (post-dose), and 3) continuous 12-lead ECG (cECG, iCardiac Holter monitoring) was recorded for 24 hours, starting 1 hour prior to dosing and up to 24 hours post dosing.

With `O=C(NCC1CCCCN1)c1cc(OCC(F)(F)F)ccc1OCC(F)(F)F` (centres unmarked) [flecainide] the “magnitude of QRS prolongation” value (20 mg eTLD) was 3.0 ms, the “magnitude of QRS prolongation” value (40 mg eTLD) was 8.2 ms and the “magnitude of QRS prolongation” value (60 mg eTLD) was 16 ms. For the same compound, the “difference of QRS interval duration from pre-dose baseline” value (2 to 24 hours post-inhalation of 30 mg eTLD, baseline 78±2 msec) was less than 2 ms, the PR interval (8 and 24 hours post-IV infusion) was “fully returned to pre-drug baseline” and the QRS interval duration (30 min after completion of inhalation, 20-60 mg eTLD) was “returned to near pre-dose levels”. For the same compound, the “PR interval longer than pre-drug baseline” value (2 hours and beyond post-oral IH flecainide) was “approximately 2 msec”, the PR interval (2 hours and beyond post-oral IH flecainide, baseline 158.5 msec) was 160 ms and the “QRS interval duration longer than baseline” value (2 hours following IV infusion, baseline 78±2 msec) was 12.5 ms. For the same compound, the “PR interval longer than pre-drug baseline” value (2 hours post-IV infusion, baseline 161±3 msec) was roughly 12 ms, the “QRS interval duration longer than baseline” value (24 hours following IV infusion) was roughly 7 ms and the “mean ΔPR” value (Cohort 1, 20 mg eTLD, 1 minute post-dosing) was -6 ms. The “mean ΔPR” value (Cohort 1, 20 mg eTLD, 3 minutes post-dosing) was -4.5 ms, the “mean ΔPR” value (Cohort 1, 20 mg eTLD, 10 minutes to 4 hours after dosing) was “smaller than −3.0 msec” and the “mean ΔQRS” value (Cohort 1, 20 mg eTLD, between 1 and 3 minutes after end of inhalation) was “small increase”. The QRS duration (Cohort 2, 40 mg eTLD, between 1 and 3 minutes post-dosing) was “transient increase”, the “time of maximal increase in QRS interval duration” value (Cohort 2, 40 mg eTLD, majority of subjects) was 1 min and the “prolongation in PR interval duration” value (1 to 5 min) was roughly 5 ms. The “prolongation in PR interval duration” value (10 and 15 minutes) was “up to 12 msec”, the “non-specific intraventricular conduction delay” value (Cohort 5, IV infusion) was 3 of 6 subjects and the “maximal increase in QRS interval duration, mean (±SEM)” value (Cohort 5, IV infusion 2 mg/kg) was 34.2 ± 2.4 ms. The “duration of QRS widening” value (Cohort 5, inhalation) was 15 to 30 min, the “maximal increase in QRS interval duration, mean (±SEM)” value (Cohort 5, inhalation 30 mg eTLD) was 12.4 ± 2.6 ms and the “duration of QRS widening” value (Cohort 5, intravenous) was greater than 60 min. For the same compound, the “non-specific intraventricular conduction delay” value (Cohort 5, oral inhalation eTLD 30 mg) was “not observed”, the “duration of intraventricular conduction delay” value (IV 2 mg/kg, 10 min infusion (FIG. 34)) was 5 to 10 min and the “maximal PR interval prolongation” value (IV infusion 2 mg/kg) was 25 ms. The T-wave morphology (IV infusion 2 mg/kg (FIG. 36)) was “T-wave notching”, the “lower plasma concentration by inhalation for QRS prolongation of magnitude achieved by IV (6.2/2.7)” value (Part B) was 2.3 fold and the “maximal QRS interval prolongation” value (eTLD 20 mg) was 3.5±1.0. The “smaller change in QRS interval duration, inhalation vs IV infusion” value (eTLD 30 mg vs ~150 mg IV) was 2.7 fold, the “maximal QRS interval prolongation” value (eTLD 40 mg) was 10±1.5 and the “maximal QRS interval prolongation” value (eTLD 60 mg) was 16±1.4. The PR interval (end of IV infusion 2 mg/kg, 164±1 msec 45 min prior) was 187 ± 6 ms, the T-wave morphology (inhalation 20, 30, 40 mg eTLD) was “No changes” and the “lower plasma level following inhalation at similar ΔQRS” value (inhalation vs 5 min into IV infusion) was 2.6 fold. The “PR interval prolongation from start of inhalation” value (inhaled 30 mg eTLD, 5 min after completion of inhalation) was 12 ms, the “changes of PR interval duration” value (inhaled 20 or 40 mg eTLD) was “Minimal or no changes” and the “temporal relation between plasma concentration and ΔQRS” value (non-steady state, IV and inhalation) was “changes in QRS interval duration lag those of the peripheral venous concentrations”. For the same compound, the “maximal PR interval prolongation” value (oral inhalation 30 mg eTLD) was 12 ms, the “maximal decrease in QRS amplitude (average of several tracings)” value (subject R222, 40 mg eTLD) was roughly 480 μV and the “maximal increase in QRS duration (average of several tracings)” value (subject R222, 40 mg eTLD) was roughly 9 ms. For the same compound, the “increase in QRS duration (QRSd)” value (subject R222, 40 mg eTLD, 1 minute post-dosing) was 10 ms and the “decrease in amplitude of the R-wave (QRSa)” value (subject R222, 40 mg eTLD, 3 min post-dosing) was 400 μV.
